Like-named read-outs stand apart in the source and are kept apart here.
What was measured:
Type in all cases: cell-based
[1] = test system: neuroendocrine prostate cancer cells, e.g., LASCPC-01 cells; test: Differentiation GSEA signatures from RNA-Seq, LASCPC-01; settings: FIG. 3
Method: In some embodiments, GSEA signatures are utilized for assessing cell states, differentiation, etc. In some assessments, differentiation GSEA signatures, e.g., from RNA-Seq was performed. A useful protocol is described herein as an example. In some assessments, LASCPC-01 cells, NEPC organoid cell pellets, or NCI-H1048 tumor pieces were flash frozen upon harvest and stored at −80° C. RNA was isolated, mRNA library was prepared (poly A enrichment) and sequencing was run. Reads were aligned to reference v38 using Kallis to generate gene count matrices for each sample. The gene count matrix was the input to the ML pipelines that generate normal atlas scores and cell state classification. It was also input to differential expression analysis using Edger in R. The output of differential expression was input to gene set enrichment analysis (GSEA) to define gene sets that were most shifted by treatment. For defining specific epithelial differentiation endpoints to generate the solid tumor differentiation box plots, cell state gene sets resulting from GSEA are consolidated by cell state to define a consensus set of genes that define epithelial differentiation. Other suitable technologies may also utilized in accordance with the present disclosure.

KAT2A [2] = biological target: T1, KAT2A (Homo sapiens, UniProt Q92830); test: Western blot of KAT2A level in NEPC primary patient organoid, 72 hours; set-up: degrader, Western blot; settings: FIG. 3 (D)
T1 sequence (Q92830 whole entry): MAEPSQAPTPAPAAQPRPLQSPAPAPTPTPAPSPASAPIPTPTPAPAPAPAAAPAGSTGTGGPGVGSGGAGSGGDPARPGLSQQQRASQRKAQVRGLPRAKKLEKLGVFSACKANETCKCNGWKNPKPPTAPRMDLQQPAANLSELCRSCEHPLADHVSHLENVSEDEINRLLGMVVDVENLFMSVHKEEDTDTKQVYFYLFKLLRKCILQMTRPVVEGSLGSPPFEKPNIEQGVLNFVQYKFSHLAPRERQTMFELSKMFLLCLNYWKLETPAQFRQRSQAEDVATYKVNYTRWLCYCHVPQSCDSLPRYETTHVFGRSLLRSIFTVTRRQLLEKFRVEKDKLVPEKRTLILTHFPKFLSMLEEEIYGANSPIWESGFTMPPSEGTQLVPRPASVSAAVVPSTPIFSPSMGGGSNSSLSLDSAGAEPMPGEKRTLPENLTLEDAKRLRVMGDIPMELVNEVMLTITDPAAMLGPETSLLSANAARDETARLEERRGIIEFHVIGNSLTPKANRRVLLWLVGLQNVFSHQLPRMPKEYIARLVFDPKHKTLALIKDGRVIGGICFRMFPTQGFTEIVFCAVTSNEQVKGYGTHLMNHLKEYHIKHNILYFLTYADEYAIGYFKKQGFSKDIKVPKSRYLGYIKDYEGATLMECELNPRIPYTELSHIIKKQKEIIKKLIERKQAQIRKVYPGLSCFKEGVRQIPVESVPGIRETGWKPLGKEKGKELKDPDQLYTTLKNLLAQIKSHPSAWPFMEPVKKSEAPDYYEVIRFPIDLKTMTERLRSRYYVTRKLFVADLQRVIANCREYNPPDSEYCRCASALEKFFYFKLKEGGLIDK
Method: (§1) FIG. 3. Provided compounds can provide various activities. (A): Provided technologies can reduce KAT2A and KAT2B levels and histone acetylation levels. […] Cell viability (Cell Titer Glo) data relative to DMSO control after 7 days of treatment with compound 22 are presented as examples to confirm inhibition. GI50=5 nM. (C): Provided technologies can modulate cell states and induce differentiation. […] (D): Provided technologies can reduce KAT2A and KAT2B levels and histone acetylation levels including in neuroendocrine prostate cancer primary patient organoid. […] Concentrations are nM. […] Cell viability data relative to DMSO control after 21 days of treatment with compound 22 are presented as examples to confirm inhibition. GI50=3 nM. (F): Provided technologies can modulate cell states and induce differentiation.

[3] = test system: NEPC primary patient organoid; test: Cell viability of NEPC primary patient organoid, 21 days; settings: Homo sapiens, 504 h, cell viability relative to DMSO control after 21 days, FIG. 3 (E)
Method: as §1

[4] = test system: histone acetylation (e.g., AcH3K9); test: Histone H3K9 acetylation (AcH3K9), Western Blot, LASCPC-01 cells; settings: FIG. 3
Method: In some embodiments, an assessment is performed using cells. In some embodiments, cells were treated with various compounds before assessing KAT2A and/or KAT2B levels, histone (e.g., H3K9) acetylation levels, cell states, growth, etc.
Western Blot: In some assessments, MOLM13, NCI-H1048, LASCPC-01 and NEPC organoid cells were treated with compounds at certain concentrations for certain periods of time, and cell pellets were lysed by adding 1-part 4×laemmli Sample buffer (e.g., Bio-Rad Catalog #1610747) along with Mercaptoethanol (e.g., Bio-Rad Catalog #1610710) according to manufacturer's instructions, and 1-part RIPA buffer with 2×protease and phosphatase inhibitor. The samples were sonicated 30% amplitude, 35 seconds on and 35 seconds off for 1 cycle and boiled at 95° C. for 5 minutes. 30-35 μL of samples were loaded on a 4-15% Criterion™ TGX Stain-Free™ Protein Gel (Bio-rad, 5678084). In some assessments, NCI-H1048 flash frozen tumor pieces were resuspended in RIPA buffer and homogenized on TissueLyser II with steel beads at 30 Hz for 3 minutes. Samples were then centrifuged at […] at 4° C. for 15 minutes. BCA protein determination was performed and samples normalized for 1.95 ug/uL. 19.5 uL were loaded and run on similar gels as cell pellets. […]

KAT2A [5] = biological target: T1, KAT2A; test: KAT2A degradation, Western Blot (Jess), NCI-H1048 cells; set-up: degrader, Western blot (Jess)
In short: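 NCI-H1048 cells grown in HITES medium with 5% FBS were treated with compounds for 24 h at 37° C. Lysates were run by capillary Western (Jess) with KAT2A or KAT2B antibodies and chemiluminescent detection. DC50 derived from percent protein reduction versus DMSO control.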

With CN1C[C@H](Nc2cnn(C)c(=O)c2Br)C[C@H](c2ccc(C(=O)N3CCC(CN4CCN(c5ccc6c(c5)CN(C5CCC(=O)NC5=O)C6=O)CC4)CC3)cc2)C1 (stereo partly drawn) [Compound 22, 3-(5-(4-((1-(4-((3R,5R)-5-((5-bromo-1-methyl-6-oxo-1,6-dihydropyridazin-4-yl)amino)-1-methylpiperidin-3-yl)benzoyl)piperidin-4-yl)methyl)piperazin-1-yl)-1-oxoisoindolin-2-yl)piperidine-2,6-dione] the induction of differentiation [1] was “induce differentiation (e.g., epithelial, neural, and/or microglial)”, the “reduction of KAT2A level” value (KAT2A [2]) was “confirmed such reductions” and the GI50 [3] was 3 nM. For the same compound, the “histone acetylation (e.g., AcH3K9) levels” value [4] was “reduce histone acetylation (e.g., AcH3K9) levels”, the EC90 (KAT2A [5]; 24 h, NCI-H1048, KAT2A, read-out: DC90 (the source's name)) was 0.29 nM and the DC50 (KAT2A [5]; NCI-H1048, KAT2A, read-out: DC50) was 0.01 nM. For the same compound, the KAT2A levels (KAT2A [5]; NCI-H1048 cells, FIG. 1) was “potently reduce KAT2A and KAT2B levels” and the DC50 (KAT2A [5]; NCI-H1048 cells, KAT2A, 24 h, Western Blot, vs DMSO, read-out: KAT2A NCI-H1048 DC50) was less than 1 nM.
